Experimental data as given in patent publication US12351829B2, “Generation, proliferation and expansion of epithelial cells from primary tissue into mucosoid cultures” (Max-Planck-Gesellschaft zur Förderung der Wissenschaften …, priority 2018, dated 2025).

Legend:
[1] = system: IL-8 expression in gastric-antrum mucosoid cultures; test: Pro-inflammatory stimulation of gastric-antrum mucosoid cultures, IL-8 qPCR; type: cell-based, human; settings: 10 μg/ml TNF-α or 5 μg/ml IL-1β for 3 days; +W+R and −W−R cultures
Experimental: Filters were cut out of the insert and directly transferred to a tube containing 1 ml Trizol (Thermo). After vortexing samples were incubated for 10 min at RT, vortexed again and frozen at −80° C. for long-term storage. 500 μl of chloroform was added to thawed samples before vortexing, incubation for 2 min at RT and centrifugation for 15 min at 4° C. The aqueous phase was mixed with isopropanol, inverted 6× and incubated for 10 min at RT. The sample was transferred to a total RNA isolation Kit column (Thermo) and processed according to the manufacturer's instructions. Total RNA was measured using a NanoDrop and reverse transcription carried out using the Tetro cDNA synthesis Kit (Bioline). DNA was extracted using AllPrep DNA/RNA Mini Kit (Qiagen) according to the manufacturer's instructions; Total DNA was measured using a NanoDrop. qPCR (Step One, Applied Biosystem) was performed using the SensiMix™ SYBR® hi-ROX Kit (Bioline, 3-step cycling according to the manufacturer).
FIG. 16. Antral mucosoid cultures derived from 3 different patients were cultivated for 13 days. Parallel samples were differentiated by excluding Wnt3A and RSPO1 from the culture for 5 days (A)(B) treatment with 10 μg/ml TNF-α or 5 μg/ml IL-1Iβ for 3 days. Expression of IL-8 was analysed by qPCR and normalized to untreated control cells in +W+R medium. ns: not significant; *p<0.005, unpaired t-test. […]

[2] = system: parietal cells in corpus-stomach mucosoid culture; settings: BMP4-induced corpus mucosoid culture; 10 μl of 5 mM Histamin solution
Experimental: Specific signals are needed to drive the parietal cell lineages and in particular the activation of BMP4 and the suppression MEK/MAPK pathway.
Three corpus samples were taken at passage 4 in ALI and grown for 13 days in regular medium following by 2 weeks treatment with 50 ng/ml of BMP4 and removal of Noggin and EGF. The Corpus-gEPMs on filters were pre-incubated with […] Acridine Orange for 15 min. The filter was cut out of the insert and mounted with the cells facing the glass on a IBIDI chamber with 400 μl of media (the same with AO). A coverslip was put on top. Images were taken with 25× (Glycerol) for 10 min to stabilize the filter and avoid movements. A solution of 10 μl of 5 mM Histamin in medium was applied on the border of the coverslip while imaging. Fluorescence of acridine orange was excited at 488 nm (3-4%) and images were collected in a time series (10sec) at 500-550 nm and 600-650.

[3] = system: ATP4B+ parietal cells in gastric-corpus derived mucosoid cultures; test: BMP4-induced parietal cell differentiation in corpus-stomach mucosoid culture (ATP4B IF); type: cell-based, human; settings: 50 ng/ml BMP4 for two weeks, absence of Noggin and EGF; untreated 0,4%

TNF-α
IL-8 expression (qPCR) [1]: induced IL-8 expression regardless of W/R

IL1-β: recombinant pro-inflammatory cytokine
IL-8 expression (qPCR) [1]: induced IL-8 preferentially in +W+R cultures

NCCc1c[nH]cn1 [histamine]
acid production (acridine orange changes to orange) [2]: able to produce acid

B1: BMP4: BMP pathway activator provided at 50 ng/ml to drive parietal cell lineage (protein, UniProt P12644 293-408, looked up)
Bone morphogenetic protein 4: SPKHHSQRARKKNKNCRRHSLYVDFSDVGWNDWIVAPPGYQAFYCHGDCPFPLADHLNSTNHAIVQTLVNSVNSSIPKACCVPTELSAISMLYLDEYDKVVLKNYQEMVVEGCGCR
ATP4B+ parietal cells [3]: 2,4%
